Series [1] is described as follows: Acute toxicity (LD50, Litchfield-Wilcoxon test). The note with it: mouse, in vivo, ip; intraperitoneal; deaths counted 48 hours after treatment; fasted mice. The method, then:
Acute toxicity studies were performed on I.C.R. Swiss albino mice of both sexes weighing 30±2 g, kept fasting for 24 hours prior to the experiment. The room temperature and relative humidity were kept constant. The products were administered intraperitoneally, counting the number of deaths 48 hours after the treatment. The calculation of lethal dose 50 (LD50) was made by the Litchfield-Wilcoxon test.

Series [2] has as its system I.C.R. Swiss albino mice. Description: Thermal analgesia, hot plate technique at 55° C. In kind it is in vivo. The settings on record: 50mg/kg, intraperitoneal; for thermal analgesic activity (in words): compared with dextropropoxyphene / control; for Jumping time, mean ± S.E.M.: 30 minutes. The method, then: The thermal analgesic effect was studied on I.C.R. Swiss albino mice. The hot plate technique was used at 55° C. Batches of 10 mice were made.
The products under study were administered intraperitoneally and after 30 minutes the mice were placed on the hot plate, counting the number of seconds they took to jump. Batches of control animals which are only injected with distilled water are used.

Series [3] relates to I.C.R. Swiss albino mice. The series is described as follows: Chemical analgesia, acetic acid writhing technique. The settings on record: 25mg/kg, intraperitoneal; for analgesic activity, acetic acid writhing (in words): compared with dextropropoxyphene; for No. of writhes, mean ± S.E.M.: 20 minutes after acetic acid; for Significance of differences vs Dextropropoxyphene: No. of writhes. Type of series: in vivo. How it is done: The analgesic effect was studied on I.C.R. Swiss albino mice with the acetic acid writhing technique. Batches of 10 mice were made.
The products under study were administered intraperitoneally and after 30 minutes 0.25 ml of 1% acetic acid are injected intraperitoneally. A batch of control animals which only receive acetic acid is used. The number of writhes in each mouse is counted 20 minutes after administration of the acetic acid.

The mark [4] stands for this setting: Table III, Control 48.8 ± 5.033.
[5] abbreviates: Table VI, Control 109.9 ± 6.362.
Where [6] appears, read: Table VII, Control 109.9 ± 6.362.

In the case of `CN1CCC2(C)CC1Cc1c2sc2ccccc12` (racemic) [Product I, 2,5-dimethyl-benzo[b]thieno[2,3-f]morphan], the LD50 at 48 h in series [1] came to 35.2 mg/kg. The “thermal analgesic activity (in words)” value with I.C.R. Swiss albino mice [2] is recorded as “analgesic activity which is not significantly different from that of dextropropoxyphene”. Moreover, the “Jumping time, mean ± S.E.M.” value in the series on I.C.R. Swiss albino mice [2] (Table II, Control 64 ± 7.919) amounted to 168.67 ± 11.334 s. For the same compound, the “Significance of differences vs Dextropropoxyphene” value (“Significance of differences” for short) in the series with I.C.R. Swiss albino mice [2] (Table II, jumping time) is recorded as “N.S”. In addition, in the series with I.C.R. Swiss albino mice [3], the “analgesic activity, acetic acid writhing (in words)” value is on record as “greater analgesic activity then dextropropoxyphene”. The “No. of writhes, mean ± S.E.M.” value in the series with I.C.R. Swiss albino mice [3] (Table V, Control 101.4 ± 8.973) stood at 3.1 ± 1.234.

For the compound `CCC(=O)O[C@](Cc1ccccc1)(c1ccccc1)[C@H](C)CN(C)C` [Dextropropoxyphene, dextropropoxyphene, reference compound], the “Jumping time, mean ± S.E.M.” value with I.C.R. Swiss albino mice [2] (Table II, Control 64 ± 7.919) was found to be 164 ± 7.319 s; with I.C.R. Swiss albino mice [2] (setting [4]), 91.3 ± 7.894 s; with I.C.R. Swiss albino mice [2] (Table IV, Control 48.8 ± 5.033), 91.3 ± 7.894 s. Also, the “No. of writhes, mean ± S.E.M.” value in the series with I.C.R. Swiss albino mice [3] (Table V, Control 101.4 ± 8.973) is 21.5 ± 5.929; with I.C.R. Swiss albino mice [3] (setting [5]) it was 27.8 ± 8.365; with I.C.R. Swiss albino mice [3] (setting [6]), 27.8 ± 8.365.

In series [1], `CC1=CCN(C)C(Cc2csc3ccccc23)C1` (stereo not drawn) [Product II, 2-(3-benzo[b]thienylmethyl)-1,4-dimethyl-1,2,3,6-tetrahydropyridine] showed a 50% lethal dose (LD50) at 48 h of 916 mg/kg. Further, in the series with I.C.R. Swiss albino mice [2], the “thermal analgesic activity (in words)” value is given as “lacking thermal analgesic activity”. For the same compound, the “Jumping time, mean ± S.E.M.” value with I.C.R. Swiss albino mice [2] (setting [4]) was 63 ± 8.368 s. In addition, the “analgesic activity, acetic acid writhing (in words)” value with I.C.R. Swiss albino mice [3] is recorded as “not significantly different from that of dextropropoxyphene”. Further, the “No. of writhes, mean ± S.E.M.” value in the series with I.C.R. Swiss albino mice [3] (setting [5]) stood at 41.2 ± 6.024. In the series on I.C.R. Swiss albino mice [3] (Table VI), the “Significance of differences” value is recorded as “N.S”.

For the compound `CC1=CC(Cc2csc3ccccc23)N(C)CC1` (stereo not drawn) [Product III, 2-(3-benzo[b]thienylmethyl)-1,4-dimethyl-1,2,5,6-tetrahydropyridine], the LD50 at 48 h in series [1] was 275 mg/kg. Also, the “thermal analgesic activity (in words)” value with I.C.R. Swiss albino mice [2] was “lacking thermal analgesic activity”. Moreover, the “Jumping time, mean ± S.E.M.” value in the series with I.C.R. Swiss albino mice [2] (Table IV, Control 48.8 ± 5.033) came out at 48.9 ± 5.292 s. The “analgesic activity, acetic acid writhing (in words)” value in the series with I.C.R. Swiss albino mice [3] was “not significantly different from that of dextropropoxyphene”. The “No. of writhes, mean ± S.E.M.” value in the series with I.C.R. Swiss albino mice [3] (setting [6]) is 22.5 ± 6.263. The “Significance of differences” value in the series on I.C.R. Swiss albino mice [3] (Table VII) was “N.S”.

The record behind these values is patent publication US4179565A, “2,5-Dimethyl-benzo[b]-thieno[2,3-f]morphan and precursors thereof” (priority 1977, dated 1979).
